From publication PMC6487500 (Molecular imaging and biology : MIB : the official …, 2019)

How the values were obtained:
BT474 cells = experiment: Cell binding assay and specific binding; design: species or system human; settings: at 60 min
BT474 xenografts = experiment: Tissue distribution in mice bearing BT474 xenografts; assay type: in vivo, mouse; settings: BT474 xenograft mice, n = 5
[1] = 100 ± 20 μCi i.v., after PET/CT at 1 h

tissue distribution, contralateral muscle (BT474 xenografts; [1]): 1.2 ± 0.4 %ID/g
tissue distribution, liver (BT474 xenografts; [1]): 4.3 ± 1.3 %ID/g
tissue distribution, tumor uptake (BT474 xenografts; [1]): 2.2 ± 1.7 %ID/g
tissue distribution, lungs (BT474 xenografts; 100 ± 20 μCi i.v., at 1 h): 4.2 ± 2.6 %ID/g
T/M ratio, tissue distribution (BT474 xenografts; non-blocked, after PET/CT at 1 h): 1.7 ± 0.8
Compound: [68Ga+3].[Cl-].[Cl-].[Cl-] [[^68Ga]GaCl3]
specific BT474 cell binding (BT474 cells): 18.8 ± 2.5%
